Reference: patent publication US20090197856A1, “ANTIVIRAL COMPOUNDS” (Genelabs Technologies, Inc., priority 2007, published 2009)
Read-outs that look alike come from different tables or passages of the source.

Molecular target: T1, HCV-NS5b (Hepatitis C virus genotype 1b, UniProt Q9WMX2)
T1 construct: (His)6 (C); made in house; host or cells: XL-1 cells (E. coli), IPTG-inducible plasmid
Test: HCV-NS5b enzyme assay using homopolymer substrate
Format: biochemical
Excerpt: The coding sequence of NS5b protein was cloned by PCR from pFKI389luc/NS3-3′/ET as described by Lohmann, V., et al. (1999) Science 285, 110-113 using the primers shown on page 266 of WO 2005/012288
The cloned fragment is missing the C terminus 21 amino acid residues. The cloned fragment was inserted into an IPTG-inducible (isopropyl-β-D-thiogalactopyranoside) expression plasmid that provides an epitope tag (His)6 at the carboxy terminus of the protein.
The recombinant enzyme was expressed in XL-1 cells and after induction of expression, the protein was purified using affinity chromatography on a nickel-NTA (nitrilotriacetic acid) column. Storage condition was 10 mM Tris-HCl pH 7.5, 50 mM NaCl, 0.1 mM EDTA (ethylenediaminetetraacetic acid), 1 mM DTT (dithiothreotol), 20% glycerol at −20° C.
The polymerase activity was assayed by measuring incorporation of radiolabeled UTP into a RNA product using a biotinylated, homopolymeric template. The template was formed by annealing adenosine homopolymer to uridine 20-mer capped with a 5′-biotin group (biotin-U^20) in the ratio of 1:4. Typically, the assay mixture (50 μL) contained 25 mM Tris-HCl (pH 7.5), 40 mM KCl, 0.3 mM MgCl2, 0.05 mM EDTA, 0.2 unit/μL Superase RNAse Inhibitor, 5 mM DTT, 30 μM UTP (Uridine triphosphate), including [^3H]-UTP (uridine triphosphate) at 0.4 μCi/μL with final concentration of 1 μM, and 50 nM of homopolymeric template. Test compounds were initially dissolved in 100% DMSO and further diluted in aqueous buffer containing 5% DMSO. Typically, compounds were tested at concentrations between 2 nM and 50 μM. Reactions were started with addition of enzyme and allowed to continue at 30° C. for 90 minutes. Reactions were quenched with 8 μL of 100 mM EDTA and reaction mixtures (30 μL) were transferred to streptavidin-coated scintillation proximity microtiter plates (FlashPlates) and incubated at room temperature overnight. Incorporation of radioactivity was determined by scintillation counting.
Inhibitor IC50 values were determined by adding test compound as ten point, two-fold serial dilutions in 100% DMSO with a final reaction concentration of 5%. IC50 was calculated by plotting the % inhibition against compound concentration and fitting the data to a constrained four parameter sigmoidal curve, equivalent to the “four parameter logistic equation”:
Where Bottom is the minimum Y value, Top is the maximum Y value, and Hillslope is the slope of the linear portion of the semi-log curve. Top and Bottom were constrained to values of 0% and 100%, respectively. These analyses were performed using Graphpad Prism v.4.0 (Graphpad Software, Inc.) in conjunction with DS Accord for EXCEL 6.0 (Accelrys, Microsoft Corp.).
The table below lists the IC50 values of compounds determined using the homopolymer substrates.

[1] = homopolymer substrate, [3H]-UTP incorporation, 30° C., 90 minutes, read-out: IC50

`CN(C)CCNC(=O)c1cn2c3c(cccc13)-c1c(C3CCCCC3)c3ccc(C(=O)O)cc3n1CCC2` [Compound 440] showed an IC50 of 107 nM.

With `CN(C)S(=O)(=O)NC(=O)c1ccc2c(C3CCCCC3)c3n(c2c1)CCCn1cc(CN2CCCCC2)c2cccc-3c21` [Compound 375] the IC50 [1] was 177 nM.

In the case of `COCCNCc1cn2c3c(cccc13)-c1c(C3CCCCC3)c3ccc(C(=O)O)cc3n1CCC2` [Compound 381], the IC50 [1] is reported as 117 nM.

Work on `CCN(CC)CCCc1cn2c3c(cccc13)-c1c(C3CCCCC3)c3ccc(C(=O)O)cc3n1CCC2` [Compound 436] yielded an IC50 [1] of 333 nM.

With `O=C(O)c1ccc2c(C3CCCCC3)c3n(c2c1)CCCn1cc(-c2nnn[nH]2)c2cccc-3c21` [Compound 445] the IC50 [1] was 103 nM.

`CC(=O)c1cn2c3c(cccc13)-c1c(C3CCCCC3)c3ccc(C(=O)O)cc3n1CCC2` [Compound 402] was tested, and the IC50 was 168 nM.

`CNC(=O)c1cc2cccc3c2n1CCCn1c-3c(C2CCCCC2)c2ccc(C(=O)O)cc21` [Compound 417] was tested, and the IC50 [1] was 99 nM.

Work on `CN(C)Cc1cn2c3c(cccc13)-c1c(C3CCCCC3)c3ccc(C(=O)O)cc3n1CCCC2` [Compound 112] yielded an IC50 [1] of 109 nM.

Work on `CC1Cn2cc(CN3CCCCC3)c3cccc(c32)-c2c(C3CCCCC3)c3ccc(C(=O)O)cc3n2C1` (stereo not shown) [Compound 396] yielded an IC50 [1] of 126 nM.

Work on `O=C(O)c1ccc2c(C3CCCCC3)c3n(c2c1)CCCn1c(C(=O)NCCN2CCCCC2)cc2cccc-3c21` [Compound 404] yielded an IC50 [1] of 257 nM.

`O=C(O)c1ccc2c(C3CCCCC3)c3n(c2c1)CCCn1cc(C(=O)N2CCCC2)c2cccc-3c21` [Compound 437] gave an IC50 of 151 nM.

Work on `CC1CCC(NCc2cn3c4c(cccc24)-c2c(C4CCCCC4)c4ccc(C(=O)O)cc4n2CCC3)CC1` (stereo not shown) [Compound 364] yielded an IC50 [1] of 277 nM.

With `CN1CCN(Cc2cn3c4c(ccc(Cl)c24)-c2c(C4CCCCC4)c4ccc(C(=O)O)cc4n2CCC3)CC1` [Compound 458] the IC50 [1] was 196 nM.

For `CC1CCC(C)N1Cc1cn2c3c(cccc13)-c1c(C3CCCCC3)c3ccc(C(=O)O)cc3n1CCC2` (stereo not shown) [Compound 382], the IC50 [1] was 141 nM.

In the case of `O=C(O)c1ccc2c(C3CCCCC3)c3n(c2c1)CCn1cc(CN2CCOCC2)c2cccc-3c21` [Compound 122], the IC50 [1] is reported as 51 nM.

For `CCN(C)Cc1cn2c3c(cccc13)-c1c(C3CCCCC3)c3ccc(C(=O)O)cc3n1CC2` [Compound 351], the IC50 [1] was 56 nM.

`O=C(O)c1ccc2c(C3CCCCC3)c3n(c2c1)CCCn1cc(CNC2CCCC2)c2cccc-3c21` [Compound 371] was tested, and the IC50 [1] was 109 nM.

Work on `COc1ccc2c3c1ccn3CCCn1c-2c(C2CCCCC2)c2ccc(C(=O)O)cc21` [Compound 460] yielded an IC50 [1] of 211 nM.

`O=C(O)c1ccc2c(C3CCCCC3)c3n(c2c1)CCCn1cc(CN2CCCCC2)c2cc(F)cc-3c21` [Compound 467] gave an IC50 [1] of 95 nM.

With `CN(C)Cc1cc2cccc3c2n1CCCn1c-3c(C2CCCCC2)c2ccc(C(=O)O)cc21` [Compound 411] the IC50 [1] was 277 nM.

`CCN(CC)C1CCN(C(=O)c2cc3cccc4c3n2CCCn2c-4c(C3CCCCC3)c3ccc(C(=O)O)cc32)CC1` [Compound 408] showed an IC50 [1] of 142 nM.

`O=C(O)c1ccc2c(C3CCCCC3)c3n(c2c1)CCCn1ccc2cc(F)cc-3c21` [Compound 466] showed an IC50 [1] of 85 nM.

Work on `CC(C)N1Cc2c(n3c4c(cccc24)-c2c(C4CCCCC4)c4ccc(C(=O)O)cc4n2CCC3)C1=O` [Compound 419] yielded an IC50 [1] of 180 nM.

`N#Cc1cn2c3c(cccc13)-c1c(C3CCCCC3)c3ccc(C(=O)O)cc3n1CCC2` [Compound 444] showed an IC50 [1] of 215 nM.

Work on `O=C(O)c1ccc2c(C3CCCCC3)c3n(c2c1)CCCn1cc(CN2CCOCC2)c2cccc-3c21` [Compound 107] yielded an IC50 [1] of 19 nM.

`O=C(O)c1ccc2c(C3CCCCC3)c3n(c2c1)CCCn1cc(CN2CCCCC2)c2ccnc-3c21` [Compound 464] was tested, and the IC50 [1] was 960 nM.

In the case of `O=C(O)c1ccc2c(C3CCCCC3)c3n(c2c1)CC(CO)Cn1ccc2cccc-3c21` (racemic) [Compound 377], the IC50 [1] is reported as 280 nM.

In the case of `CCN(C)Cc1cn2c3c(cccc13)-c1c(C3CCCCC3)c3ccc(C(=O)O)cc3n1CCC2` [Compound 337], the IC50 [1] is reported as 1290 nM.

`N=C(N)c1cn2c3c(cccc13)-c1c(C3CCCCC3)c3ccc(C(=O)O)cc3n1CCC2` [Compound 446] showed an IC50 [1] of 169 nM.

Work on `O=C(O)c1ccc2c(C3CCCCC3)c3n(c2c1)CCCn1cc(CN[C@H]2CC[C@H](O)CC2)c2cccc-3c21` [Compound 384] yielded an IC50 [1] of 65 nM.

`O=C(O)CNCc1cn2c3c(cccc13)-c1c(C3CCCCC3)c3ccc(C(=O)O)cc3n1CCC2` [Compound 380] was tested, and the IC50 [1] was 93 nM.

Work on `CS(=O)(=O)NC(=O)c1ccc2c(C3CCCCC3)c3n(c2c1)CCCn1cc(CN2CCCCC2)c2cccc-3c21` [Compound 373] yielded an IC50 [1] of 153 nM.

For `CC(C)NC(=O)c1cn2c3c(cccc13)-c1c(C3CCCCC3)c3ccc(C(=O)O)cc3n1CCC2` [Compound 443], the IC50 was 121 nM.

For `CCN(C)Cc1cn2c3c(cccc13)-c1c(C3CCCCC3)c3ccc(C(=O)OC)cc3n1CCC2` [Compound 376], the IC50 [1] was 641 nM.

Compound `O=C(O)c1ccc2c(C3CCCCC3)c3n(c2c1)CCCn1c(C(=O)O)cc2cccc-3c21` [Compound 407] has an IC50 [1] of 253 nM.

With `O=C(O)c1ccc2c(C3CCCCC3)c3n(c2c1)CCCn1cc(C2CCNCC2)c2cccc-3c21` [Compound 398] the IC50 [1] was 204 nM.

With `O=C(O)c1ccc2c(C3CCCCC3)c3n(c2c1)CCCn1cc(C(=O)CN2CCCCC2)c2cccc-3c21` [Compound 454] the IC50 was 348 nM.

In the case of `CCCNC1CCN2CCn3c(c(C4CCCCC4)c4ccc(C(=O)O)cc43)-c3cccc1c32` (stereo not shown) [Compound 277], the IC50 [1] is reported as 56 nM.

In the case of `O=C(NC1CC1)c1ccc2c(C3CCCCC3)c3n(c2c1)CCCn1cc(CN2CCCCC2)c2cccc-3c21` [Compound 374], the IC50 [1] is reported as 365 nM.

`NCc1cn2c3c(cccc13)-c1c(C3CCCCC3)c3ccc(C(=O)O)cc3n1CCC2` [Compound 395] gave an IC50 [1] of 140 nM.

Compound `O=C(O)c1ccc2c(C3CCCCC3)c3n(c2c1)CCCn1cc(CNC2CC2)c2cccc-3c21` [Compound 131] has an IC50 [1] of 208 nM.

Work on `O=C(O)c1ccc2c(C3CCCCC3)c3n(c2c1)CCCn1cc(CN2CCCCC2)c2c(Cl)ccc-3c21` [Compound 457] yielded an IC50 [1] of 195 nM.

For `CC(C)NCc1cn2c3c(cccc13)-c1c(C3CCCCC3)c3ccc(C(=O)O)cc3n1CCC2` [Compound 110], the IC50 [1] was 96 nM.

In the case of `CC(C)N(C(=O)c1cn2c3c(cccc13)-c1c(C3CCCCC3)c3ccc(C(=O)O)cc3n1CCC2)C(C)C` [Compound 441], the IC50 is reported as 271 nM.

Work on `CN(C)CCNCc1cn2c3c(cccc13)-c1c(C3CCCCC3)c3ccc(C(=O)O)cc3n1CCC2` [Compound 368] yielded an IC50 [1] of 303 nM.

`CCC(CC)NCc1cn2c3c(cccc13)-c1c(C3CCCCC3)c3ccc(C(=O)O)cc3n1CCC2` [Compound 132] showed an IC50 [1] of 223 nM.

`CN1CCN(C(=O)c2cc3cccc4c3n2CCCn2c-4c(C3CCCCC3)c3ccc(C(=O)O)cc32)CC1` [Compound 409] gave an IC50 [1] of 114 nM.

In the case of `COc1ccc2c3c1c(CN1CCN(C)CC1)cn3CCCn1c-2c(C2CCCCC2)c2ccc(C(=O)O)cc21` [Compound 469], the IC50 [1] is reported as 662 nM.

Compound `O=C(O)c1ccc2c(C3CCCCC3)c3n(c2c1)CCCn1cc(CN2CCCC2)c2cccc-3c21` [Compound 121] has an IC50 [1] of 49 nM.

`O=C(O)c1ccc2c(C3CCCCC3)c3n(c2c1)CCCn1cc(C2CCN(CCO)CC2)c2cccc-3c21` [Compound 401] gave an IC50 [1] of 140 nM.

For `O=C(O)c1ccc2c(C3CCCCC3)c3n(c2c1)CCCn1cc(CNCc2cccnc2)c2cccc-3c21` [Compound 386], the IC50 [1] was 196 nM.

For `CC(C)CNCc1cn2c3c(cccc13)-c1c(C3CCCCC3)c3ccc(C(=O)O)cc3n1CCC2` [Compound 367], the IC50 [1] was 158 nM.

In the case of `CCC(C)(C)NCc1cn2c3c(cccc13)-c1c(C3CCCCC3)c3ccc(C(=O)O)cc3n1CCC2` [Compound 393], the IC50 [1] is reported as 138 nM.

With `O=C(O)c1ccc2c(C3CCCCC3)c3n(c2c1)CCCn1cc(/C(Cl)=C/CN2CCCCC2)c2cccc-3c21` [Compound 431] the IC50 [1] was 201 nM.

Compound `O=C(O)c1ccc2c(C3CCCCC3)c3n(c2c1)CCCn1cc(CN2CCC(O)CC2)c2cccc-3c21` [Compound 385] has an IC50 [1] of 133 nM.

`O=C(O)c1ccc2c(C3CCCCC3)c3n(c2c1)CCn1cc(CN2CCCCC2)c2cccc-3c21` [Compound 118] gave an IC50 [1] of 48 nM.

`CCN(C)Cc1cn2c3c(ccc(Cl)c13)-c1c(C3CCCCC3)c3ccc(C(=O)O)cc3n1CCC2` [Compound 459] showed an IC50 [1] of 160 nM.

With `NC1CCN2CCn3c(c(C4CCCCC4)c4ccc(C(=O)O)cc43)-c3cc(F)cc1c32` (stereo not shown) [Compound 447] the IC50 [1] was 59 nM.
